Results reported in PMC11555526, “Development of 2-Aminoadenine-Based Proteolysis-Targeting Chimeras (PROTACs) as Novel Potent Degraders of Monopolar Spindle 1 and Aurora Kinases” (ACS Pharmacology & Translational Science, 2024).
Several values for one entry are separate records, joined by “and”; a condition that tells them apart may be missing. Identical values can stand only once.

Assays:
[1] = target: T1, AURKA (MV4-11^AURKA-HiBiT cells) (Homo sapiens, UniProt O14965); assay: HiBiT assay, AURKA degradation; format: cell-based; conditions: for Dmax (maximal degradation) AURKA / DC50: 6 h treatment, MV4-11^AURKA-HiBiT cells; for DC50: read-out: DC50 (half-maximal degradation concentration) AURKA
T1 construct: expressed in transfected cells; host or cells: MV4-11, lentiviral transduction
T1 sequence (O14965 1-403): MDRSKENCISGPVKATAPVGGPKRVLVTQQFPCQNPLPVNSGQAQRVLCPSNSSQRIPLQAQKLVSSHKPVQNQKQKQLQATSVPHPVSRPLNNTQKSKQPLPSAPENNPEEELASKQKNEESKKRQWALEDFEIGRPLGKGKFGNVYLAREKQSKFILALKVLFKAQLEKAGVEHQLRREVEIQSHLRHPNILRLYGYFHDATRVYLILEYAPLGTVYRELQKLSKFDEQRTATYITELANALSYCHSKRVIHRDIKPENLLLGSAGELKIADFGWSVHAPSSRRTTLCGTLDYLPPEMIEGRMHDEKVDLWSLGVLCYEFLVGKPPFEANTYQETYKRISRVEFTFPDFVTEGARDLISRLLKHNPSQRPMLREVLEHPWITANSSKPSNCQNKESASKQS
In short: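 MV4-11 lines stably expressing HiBiT-tagged AURKA, AURKB or TTK (lentiviral) were treated with serial compound dilutions for the indicated times. Remaining tagged protein was read by lytic HiBiT luminescence, and DC50 was fitted with a four-parameter dose–response equation using concentrations showing sigmoidal behaviour.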

TTK = target: T2, TTK (Homo sapiens, UniProt P33981); assay: Immunoblot of TTK in CALU1 cells; format: cell-based; set-up: endogenous in cells; conditions: 6 h
T2 sequence (P33981 1-857): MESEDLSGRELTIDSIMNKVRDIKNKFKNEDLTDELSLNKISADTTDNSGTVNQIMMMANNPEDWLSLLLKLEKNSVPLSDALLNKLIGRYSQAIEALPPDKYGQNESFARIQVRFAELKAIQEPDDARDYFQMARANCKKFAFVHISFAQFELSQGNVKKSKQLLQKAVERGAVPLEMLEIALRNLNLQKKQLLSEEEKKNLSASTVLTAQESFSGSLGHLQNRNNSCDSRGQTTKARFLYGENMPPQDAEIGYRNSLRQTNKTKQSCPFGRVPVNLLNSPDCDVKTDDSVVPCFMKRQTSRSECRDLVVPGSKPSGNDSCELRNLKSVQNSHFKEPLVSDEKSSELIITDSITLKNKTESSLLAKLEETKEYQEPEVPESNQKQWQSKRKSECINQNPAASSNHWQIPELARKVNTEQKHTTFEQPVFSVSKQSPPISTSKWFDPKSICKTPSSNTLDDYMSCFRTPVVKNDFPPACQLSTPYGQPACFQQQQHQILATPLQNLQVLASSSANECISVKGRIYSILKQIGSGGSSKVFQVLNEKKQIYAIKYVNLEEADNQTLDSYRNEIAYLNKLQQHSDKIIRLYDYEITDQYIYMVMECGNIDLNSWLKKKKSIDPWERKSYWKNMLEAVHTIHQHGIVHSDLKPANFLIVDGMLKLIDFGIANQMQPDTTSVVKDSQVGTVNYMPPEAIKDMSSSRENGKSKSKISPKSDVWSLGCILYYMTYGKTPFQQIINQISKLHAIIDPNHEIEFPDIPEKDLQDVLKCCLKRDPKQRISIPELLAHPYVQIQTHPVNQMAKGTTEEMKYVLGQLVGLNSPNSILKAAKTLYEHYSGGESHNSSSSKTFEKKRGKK
Protocol: The cells were treated with compounds or vehicle for indicated time points and lysed in RIPA lysis buffer (50 mM HEPES pH 7.9, 140 mM NaCl, 1 mM EDTA, 1% Triton X-100, 0.1% SDS, 0.1% sodium deoxycholate) containing protease and phosphatase inhibitors (Sigma) for 20 min at 4 °C. Cell lysates were cleared by centrifugation, and protein concentration was determined with bicinchoninic acid assay. Equal amounts of protein per sample were separated by Bis-Tris-PAGE and transferred to PVDF membranes (Millipore). The membranes were blocked with 5% (w/v) nonfat dry milk in TBS-T [20 mM Tris–HCl, pH 7.5, 150 mM NaCl, 0.1% (v/v) Tween-20] for 1 h at room temperature and incubated with primary antibody at 4 °C overnight. Visualization was carried out using horseradish peroxidase (HRP)-labeled secondary antibodies and detected using a chemiluminescent HRP substrate (Millipore) in LAS3000 or LAS4000 mini (Fujifilm). Vinculin, GAPDH, or B-actin were used as a loading control. The loading control was probed along with the target antibody by cutting the membrane. For targets with similar molecular weights, the samples were run in duplicate and probed with their respective loading controls, although only one control was shown in the figure for all targets. The signal was quantified using ImageJ or Image Studio Lite against the corresponding loading controls. Antibodies used in this study were as follows: Aurora A/AIK (Cell Signaling Technology, 3092), Aurora B (Bethyl Laboratories, A300–431A), TTK (Santa Cruz Biotechnology, sc-56968), GAPDH (Cell Signaling Technology, 2118), B-Actin (Sigma, A5441), and Vinculin (Sigma, V9131). […]
Figure S2: Cellular degradation studies of SF1-based compounds. […]
(E), 18 (F), and 14 or 20 (G) for 6 h and compared with vehicle treated cells. (H-J) Immunoblots of TTK and AURKB. CALU1 cells were treated with indicated concentration of 14 or 20 (H), 44 or 47 (I), and 46 (J) for 6 h and compared with DMSO treated cells. All HiBiT data are represented as a mean ±s.d. from n=2 replicates. […]

| Dmax (maximal degradation) AURKA [1] | DC50 [1] | relative TTK level (immunoblot quantification, DMSO = 1.00) (TTK; 10 µM) | efficiency of AURKA degradation (Dmax) relative to AURKB and TTK ([1]; HiBiT, 6 h) | selectivity of AURKA degradation (DC50) relative to AURKB and TTK ([1]; HiBiT, 6 h) | relative TTK level (immunoblot quantification, DMSO = 1.00) (TTK; 0.1 µM) | relative TTK level (immunoblot quantification, DMSO = 1.00) (TTK; 0.01 µM) | SMILES |
| --- | --- | --- | --- | --- | --- | --- | --- |
| 50.10% | 0.046 µM | 1.00 | – | – | – | – | CC(C)S(=O)(=O)c1ccccc1Nc1nc(Nc2ccc(N3CCN(C(=O)CCCC(=O)Nc4cccc5c4C(=O)N(C4CCC(=O)NC4=O)C5=O)CC3)cc2)nc2[nH]cnc12 (centres unmarked) [Compound 14] |
| 71% and 70.70% | 0.068 µM and 0.0677 µM | – | 1.5–2.4 times | 3.7–4.2 fold | 0.87 | – | CC(C)S(=O)(=O)c1ccccc1Nc1nc(Nc2ccc(N3CCN(C(=O)CNC(=O)CCCC(=O)Nc4cccc5c4C(=O)N(C4CCC(=O)NC4=O)C5=O)CC3)cc2)nc2[nH]cnc12 (centres unmarked) [Compound 20] |
| 35.20% | 1.7 µM | – | – | – | 0.79 | 0.79 | Cc1ncsc1-c1ccc(CNC(=O)[C@@H]2C[C@@H](O)CN2C(=O)[C@@H](NC(=O)CCCC(=O)N2CCN(c3ccc(Nc4nc(Nc5ccccc5S(=O)(=O)C(C)C)c5nc[nH]c5n4)cc3)CC2)C(C)(C)C)cc1 [Compound 44] |
| 38.00% | 0.814 µM | – | – | – | – | – | Cc1ncsc1-c1ccc(CNC(=O)[C@@H]2C[C@@H](O)CN2C(=O)[C@@H](NC(=O)COCCOCC(=O)N2CCN(c3ccc(Nc4nc(Nc5ccccc5S(=O)(=O)C(C)C)c5nc[nH]c5n4)cc3)CC2)C(C)(C)C)cc1 [Compound 49] |
